≈ marks a conversion by molar mass, not a printed value. Like-named read-outs stand apart in the source and are kept apart here. Non-standard residues stand in square brackets, D forms with d. Residues, ends and D or L forms follow the SMILES beside them.
What was measured:
24-h S. aureus biofilms = assay: Biofilm dispersal activity (crystal violet); format: cell-based, Staphylococcus aureus
Method: To investigate the dispersal activity of KLK and mKLK peptide, the 24-h S. aureus biofilms were prepared in TSB medium in the 96-well plates. Then, the final concentrations of 1×, 2×, and 4 × MIC were prepared for each peptide in the wells. After incubation at 37 °C for 12 h, plates were washed with PBS three times to discard unattached bacteria. Subsequently, plates were stained with 250 μl of 0.5% crystal violet for 20 min at room temperature. Then, the wells were washed and 250 μl 33% acetic acid was added to them. Finally, the absorbance was measured at 570 nm using a microplate reader.

[1] = tested on: preformed S. aureus biofilms; format: cell-based, Staphylococcus aureus
Method: The eradicative activity of KLK and mKLK peptides against preformed S. aureus biofilms was evaluated by determining MBEC, as previously described. The 24-h biofilms developed in TSB in a 96-well plate were washed three times with 200 μl PBS solution. Concentrations of the peptides ranging from 2 to 1024 µg/ml were prepared. A volume of 100 μl of each concentration was added to a corresponding well, and plates were incubated for 18–20 h at 37 °C. Then, wells were washed with sterile PBS solution, and 100 μl of PBS solution was added. The wells were thoroughly scraped with a sterile pipette tip, vortexed and sonicated to release the biofilm cells from the well surface. Subsequently, 10 μl of well contents were plated on MHA. Colonies were counted after 20 h at 37 °C. The MBEC was defined as the lowest concentration of peptide that inhibited bacterial regrowth.

S. aureus isolates = assay: microbe, parasite or virus in culture; format: cell-based, Staphylococcus aureus
Method: Minimum inhibitory concentrations (MIC) of KLK, mKLK, and vancomycin were determined using microdilution broth assay according to clinical and laboratory standards institute (CLSI) guidelines with some modifications. Briefly, overnight cultures were diluted in Muller-Hinton broth (MHB; Merck, Germany) to achieve a final density of 5 × 10^5 CFU/ml. A volume of 100 μl of bacterial suspension was added to wells of sterile 96-well plates containing 100 μl of two-fold peptide dilutions, ranging from 0.25 to 256 µg/ml. Vancomycin was used as a positive control in this assay. […] MBC was determined by removing samples from wells with no visible growth, serially diluting, and plating on Mueller Hinton (MH) agar plates for CFU counting.

S. aureus strains = assay: Inhibition of bacterial surface attachment (crystal violet); format: cell-based, Staphylococcus aureus
Method: To investigate the inhibitory effect of KLK and mKLK peptides on bacterial surface attachment and biofilm formation, the bacterial suspension in TSB with a concentration of 10^7 CFU/ml was prepared from overnight culture. An aliquot of 100 μl of the bacterial suspension was added to wells of 96-well plates containing 100 μl of the peptides solution with concentrations of 1×, 1/2× and 1/4× MIC, resulting in the final peptides concentrations of 1/2×, 1/4× and 1/8× MIC. To investigate the inhibitory effect of the peptides on surface attachment the incubation was performed at 37 °C for 2 h and to evaluate their inhibitory activity on biofilm formation the incubation was performed at 37 °C for 24 h. The wells containing only TSB medium were used as negative controls. After incubation, the contents of the wells were removed and washed three times with PBS and the wells were stained with 200 μl of 0.1% crystal violet for 20 min. The plates were washed again and excess dye was removed. A volume of 200 μl of 95% ethanol was added to each well for 20 min and absorbance was measured at 570 nm by a microplate reader.

[2] = tested on: one MRSA and reference strain (ATCC25923); assay: Time-kill kinetics assay
Method: The peptide-free control was included for each strain. Following incubation at 37 °C for 0, 0.25, 0.5, 1, 2, 4, 5, and 24 h, each sample was serially diluted, plated onto Mueller–Hinton (MH) agar (Merck, Germany) plates and incubated at 37 °C. The viable plate count method was performed after incubation for 24 h and the counts were expressed as Log CFU/ml[44].

in vitro = conditions: human
Method: (§1) The assay was performed using fresh human blood samples containing citrate phosphate dextrose anticoagulant collected from a blood bank (Iranian Blood Transfusion Organization). Human red blood cells (RBC) were centrifuged at 1700×g for 5 min; then the supernatant was removed and the erythrocyte pellet was diluted 1:100 in PBS to obtain a 1% erythrocyte suspension. […] Then, 50 μl of the 1% erythrocyte suspension and 50 μl of the peptides were mixed and added to wells of a 96-well polypropylene conical bottom microplate and incubated at 37 °C for 1 h. Following centrifugation of the samples at 1700×g for 5 min, 50 μl of the supernatant was transferred to wells of a 96-well flat-bottom plate for the absorbance measurement at 405 nm in a microplate reader. Identical volumes of Triton X-100 (1%) and PBS were used as positive and negative controls, respectively. The selectivity indexes (SI) were also determined as a toxicity indicator.

Human red blood cells = assay: in vitro
Method: as §1

CC(C)C[C@@H](NC(=O)[C@H](N)Cc1c[nH]c2ccccc12)C(=O)N[C@H](Cc1c[nH]c2ccccc12)C(=O)N[C@H](C)C(=O)N[C@H](CC(C)C)C(=O)N[C@H](CC(C)C)C(=O)N[C@H](CCCCN)C(=O)N[C@H](CC(C)C)C(=O)N[C@H](CC(C)C)C(=O)N[C@H](CCCCN)C(=O)N[C@H](CC(C)C)C(=O)N[C@H](CCCCN)C(N)=O [mKLK] (H-[dW][dL][dW][dA][dL][dL][dK][dL][dL][dK][dL][dK]-NH2; N-terminus assumed)
crystal violet absorbance at 570 nm, dispersal activity, Mean±SD (24-h S. aureus biofilms; ATCC25923, 1MIC, control 2.79±0.03): 1.277±0.01 | crystal violet absorbance at 570 nm, dispersal activity, Mean±SD (24-h S. aureus biofilms; ATCC25923, 2MIC, control 2.79±0.03): 0.790±0.15 | crystal violet absorbance at 570 nm, dispersal activity, Mean±SD (24-h S. aureus biofilms; ATCC25923, 4MIC, control 2.79±0.03): 0.35±0.01 | crystal violet absorbance at 570 nm, dispersal activity, Mean±SD (24-h S. aureus biofilms; MRSA-1, 1MIC, control 1.903±0.003): 1.271±0.02 | crystal violet absorbance at 570 nm, dispersal activity, Mean±SD (24-h S. aureus biofilms; MRSA-1, 2MIC, control 1.903±0.003): 0.926±0.07 | crystal violet absorbance at 570 nm, dispersal activity, Mean±SD (24-h S. aureus biofilms; MRSA-1, 4MIC, control 1.903±0.003): 0.587±0.28 | crystal violet absorbance at 570 nm, dispersal activity, Mean±SD (24-h S. aureus biofilms; MRSA-2, 1MIC, control 2.014±0.01): 1.349±0.04 | crystal violet absorbance at 570 nm, dispersal activity, Mean±SD (24-h S. aureus biofilms; MRSA-2, 2MIC, control 2.014±0.01): 0.929±0.09 | crystal violet absorbance at 570 nm, dispersal activity, Mean±SD (24-h S. aureus biofilms; MRSA-2, 4MIC, control 2.014±0.01): 0.579±0.08 | crystal violet absorbance at 570 nm, dispersal activity, Mean±SD (24-h S. aureus biofilms; MRSA-3, 1MIC, control 1.255±0.29): 0.637±0.16 | crystal violet absorbance at 570 nm, dispersal activity, Mean±SD (24-h S. aureus biofilms; MRSA-3, 2MIC, control 1.255±0.29): 0.5±0.11 | crystal violet absorbance at 570 nm, dispersal activity, Mean±SD (24-h S. aureus biofilms; MRSA-3, 4MIC, control 1.255±0.29): 0.296±0.009 | crystal violet absorbance at 570 nm, dispersal activity, Mean±SD (24-h S. aureus biofilms; MSSA-1, 1MIC, control 1.787±0.1): 1.063±0.09 | crystal violet absorbance at 570 nm, dispersal activity, Mean±SD (24-h S. aureus biofilms; MSSA-1, 2MIC, control 1.787±0.1): 0.675±0.02 | crystal violet absorbance at 570 nm, dispersal activity, Mean±SD (24-h S. aureus biofilms; MSSA-1, 4MIC, control 1.787±0.1): 0.378±0.02 | crystal violet absorbance at 570 nm, dispersal activity, Mean±SD (24-h S. aureus biofilms; MSSA-2, 1MIC, control 2.116±0.006): 0.992±0.01 | crystal violet absorbance at 570 nm, dispersal activity, Mean±SD (24-h S. aureus biofilms; MSSA-2, 2MIC, control 2.116±0.006): 0.637±0.20 | crystal violet absorbance at 570 nm, dispersal activity, Mean±SD (24-h S. aureus biofilms; MSSA-2, 4MIC, control 2.116±0.006): 0.207±0.01 | MBEC ([1]; ATCC25923): 64 µg/mL | MBEC ([1]; MRSA-1): 64 µg/mL | MBEC ([1]; MRSA-2): 128 µg/mL | MBEC ([1]; MRSA-3): 64 µg/mL | MBEC ([1]; MSSA-1): 32 µg/mL | MBEC ([1]; MSSA-2): 32 µg/mL | MBEC, range over isolates ([1]; preformed biofilms): 32 to 128 µg/mL | MIC (S. aureus isolates; ATCC25923): 4 µg/mL (≈ 2.62 µM) | MIC (S. aureus isolates; MRSA clinical isolates, read-out: MIC): 8 µg/mL (≈ 5.25 µM) | MIC (S. aureus isolates; MRSA-1): 8 µg/mL (≈ 5.25 µM) | MIC (S. aureus isolates; MRSA-2): 8 µg/mL (≈ 5.25 µM) | MIC (S. aureus isolates; MRSA-3): 8 µg/mL (≈ 5.25 µM) | MIC (S. aureus isolates; MSSA-1): 4 µg/mL (≈ 2.62 µM) | MIC (S. aureus isolates; MSSA-2): 4 µg/mL (≈ 2.62 µM) | MIC (S. aureus isolates; three MRSA isolates): 8 µg/mL (≈ 5.25 µM) | MIC (S. aureus isolates; two MSSA isolates): 4 µg/mL (≈ 2.62 µM) | crystal violet absorbance at 570 nm, bacterial attachment, Mean±SD (S. aureus strains; ATCC25923, 1/4MIC, control 2.136±0.01): 1.789±0.01 | crystal violet absorbance at 570 nm, bacterial attachment, Mean±SD (S. aureus strains; ATCC25923, 1/8MIC, control 2.136±0.01): 1.952±0.07 | crystal violet absorbance at 570 nm, bacterial attachment, Mean±SD (S. aureus strains; MRSA-1, 1/2MIC, control 1.861±0.02): 1.361±0.03 | crystal violet absorbance at 570 nm, bacterial attachment, Mean±SD (S. aureus strains; MRSA-1, 1/4MIC, control 1.861±0.02): 1.599±0.08 | crystal violet absorbance at 570 nm, bacterial attachment, Mean±SD (S. aureus strains; MRSA-1, 1/8MIC, control 1.861±0.02): 1.723±0.02 | crystal violet absorbance at 570 nm, bacterial attachment, Mean±SD (S. aureus strains; MRSA-2, 1/2MIC, control 2.311±0.005): 1.496±0.01 | crystal violet absorbance at 570 nm, bacterial attachment, Mean±SD (S. aureus strains; MRSA-2, 1/4MIC, control 2.311±0.005): 1.811±0.19 | crystal violet absorbance at 570 nm, bacterial attachment, Mean±SD (S. aureus strains; MRSA-2, 1/8MIC, control 2.311±0.005): 1.906±0.13 | crystal violet absorbance at 570 nm, bacterial attachment, Mean±SD (S. aureus strains; MRSA-3, 1/2MIC, control 1.491±0.06): 0.944±0.07 | crystal violet absorbance at 570 nm, bacterial attachment, Mean±SD (S. aureus strains; MRSA-3, 1/4MIC, control 1.491±0.06): 1.078±0.07 | crystal violet absorbance at 570 nm, bacterial attachment, Mean±SD (S. aureus strains; MRSA-3, 1/8MIC, control 1.491±0.06): 1.119±0.12 | crystal violet absorbance at 570 nm, bacterial attachment, Mean±SD (S. aureus strains; MSSA-1, 1/2MIC, control 2.107±0.08): 1.229±0.07 | crystal violet absorbance at 570 nm, bacterial attachment, Mean±SD (S. aureus strains; MSSA-1, 1/4MIC, control 2.107±0.08): 1.419±0.01 | crystal violet absorbance at 570 nm, bacterial attachment, Mean±SD (S. aureus strains; MSSA-1, 1/8MIC, control 2.107±0.08): 1.592±0.36 | crystal violet absorbance at 570 nm, bacterial attachment, Mean±SD (S. aureus strains; MSSA-2, 1/2MIC, control 2.061±0.01): 1.199±0.09 | crystal violet absorbance at 570 nm, bacterial attachment, Mean±SD (S. aureus strains; MSSA-2, 1/8MIC, control 2.061±0.01): 1.576±0.46 | time after which no regrowth was observed ([2]; ATCC 25923, 1 × MIC (4 μg/ml)): 30 min | reduction in viable cell count ([2]; ATCC 25923, 1 × MIC, during 15 min): ~1 log | time after which no regrowth was observed ([2]; ATCC 25923, 2 × MIC (8 μg/ml)): 15 min | time after which no regrowth was observed ([2]; MRSA, 1 × MIC): 240 min | reduction in viable cell count ([2]; MRSA, 1 × MIC (8 μg/ml), within 2 h): 2 log | hemolysis at 1 h, 1.56 µM (in vitro): 0% | hemolysis at 1 h, 3.12 µM (in vitro): 0.3% | hemolysis at 1 h, 6.25 µM (in vitro): 1.8% | hemolysis at 1 h, 12.5 µM (in vitro): 9.3% | hemolysis at 1 h, 25 µM (in vitro): 15.4% | hemolysis at 1 h, 50 µM (in vitro): 36.2% | hemolysis at 1 h, 75 µM (in vitro): 48.2% | hemolysis at 1 h, 100 µM (in vitro): 58.2% | hemolysis at 1 h, 150 µM (in vitro): 62.4% | hemolysis at 1 h, 200 µM (in vitro): 67.1% | HC50 (Human red blood cells): 118.6 µg/mL | HC50 (Human red blood cells; red cells of human, 1 h): 77.8 µM

Reference: paper PMC10817945, “Design of a novel analogue peptide with potent antibiofilm activities against Staphylococcus aureus based upon a sapecin B-derived peptide” (Scientific Reports, 2024)
